Data published in a melting point compilation (Tetko et al.).

| melting point [°C] | Structure (SMILES) |
| --- | --- |
| 136 | NC(=S)c1ccccn1 |
| 212 | C=C1C(=O)C23C(OC(C)=O)CC4C(C)(C)CCC(OC(C)=O)C4(C=O)C2C(OC(C)=O)CC1C3OC(C)=O (stereo not given) |
| 216 | N=C(N)c1ccc(Oc2ccc(C(=N)N)cc2)cc1 |
| 166 to 169 | NC(=O)c1c(Cl)cc(C(F)(F)F)cc1Cl |
| 70 to 74 | CCOC(=O)C1=C(N)CCCC1 |
| 157 | Nc1ccc(S(=O)(=O)c2ccc(NC(=O)CCC(=O)O)cc2)cc1 |
| 300 | CC(C)C[C@@H](N)C(=O)O |
| 255 to 265 | c1ccc(C2=C(c3ccccc3)NC(c3ccncc3)N2)cc1 |
| 32 | Cc1cc(O)ccc1F |
| 80 | Cc1sc(-c2cccnc2)nc1-c1ccccc1 |
| 164 to 166 | Nc1cc(-c2ccc(F)cc2)nc(N)n1 |
| -8 | C=CC(=O)N1CCOCC1 |
| 37 to 39 | Cc1nccn1C |
| 82 to 83 | O=C1Cc2ccccc2CO1 |
| 163 | COc1ccccc1NC(=O)C(C(F)(F)F)C(F)(F)F |
| 80 to 82 | Cc1cc(C(=O)CCl)c(C)n1-c1ccc(F)cc1 |
| 111 | CC(C)c1cc(C(C)C)c(S(=O)(=O)n2cncn2)c(C(C)C)c1 |

Further lines, the compound ahead of its results:

| Structure (SMILES) | melting point [°C] |
| --- | --- |
| CCCOC1CCC2C3CC=C4CC5(CCC4(C)C3CCC12C)OCCO5 (stereo not given) | 213 to 214 |
| CCN(C(=O)Oc1cccc(NC(=O)OC(C)C)c1)c1ccccc1 | 110 |
| O=C1C=CC(=O)N1c1ccc(Nc2ccccc2)c2ccccc12 | 207 |
| Ic1ncc[nH]1 | 191 |
| N[C@@H](Cc1cc(I)c(O)c(I)c1)C(=O)O | 213 |
| N#Cc1ccc(N=C=S)cc1 | 120 |
| COc1ccc([C@@H](O)[C@@H](CO)Oc2c(OC)cccc2OC)cc1OC | 111 |
| COc1ccc(-c2coc3cc(O)ccc3c2=O)cc1 | 256 |
| O=C(NCC[C@H](O)C(=O)O)OCc1ccccc1 | 72 to 78 |
| NS(=O)(=O)c1cccc(/C(=N\O)c2ccccc2)c1 | 155 |
| COC(=O)c1ccccc1SC | 65 |
| N=C(N)NCC(O)CC(O)(C(=O)O)C1OC(n2cc(CO)c(N)nc2=O)C=CC1NC(=O)C(N)CO (stereo not given) | > 300 |
| Cn1cnc2c(NCc3ccccc3)nc(NCCO)nc21 | 120 to 130 |
| CCNC(=O)C(C)OC(=O)Nc1ccccc1 (stereo not given) | 119 |
| COc1ccc(CO)cc1OCc1ccccc1 | 85 |
| COc1ccc(NC(=O)C=CC(=O)O)cc1 | 190 to 193 |
| CN(C)c1ccc(C=CC(=O)c2ccccc2)cc1 | 114 |

| Structure (SMILES) | melting point [°C] |
| --- | --- |
| CC1(C)CC(=O)CC(C)(C)C1 | 11 to 12 |
| CCCCC(C)(O)CC (stereo not given) | -83 |
| COc1ccc(-c2onc(C(=O)c3ccco3)c2S(=O)(=O)c2ccccc2)cc1 | 150 |
| O=C(O)c1ccc(-c2ccccc2)s1 | 188 to 192 |
| O=C(O)C1CSC(c2ccccc2)N1 (mixture of isomers) | 158 to 162 |
| Fc1c(F)c(F)c(P(c2c(F)c(F)c(F)c(F)c2F)c2c(F)c(F)c(F)c(F)c2F)c(F)c1F | 117 |
| C=CCc1ccc(OC)c(OC)c1 | 70 |
| CCOC(=O)c1nn(-c2ccccc2)c(=N)c(-c2nc3ccccc3s2)c1C | 148 |
| OC(Cc1ccccc1)C(Cc1ccccc1)=NNc1ccc(Br)cc1 (stereo not given) | 139 |
| CN(C)C(=S)SSC(=S)N(C)C | 156 |
| Oc1cccnc1O | 245 |
| O=C1CCCCCCCCC1O (stereo not given) | 42 |
| CCOC(=O)C1=Nc2cc3c(cc2=C1OC(C)=O)C(OC(C)=O)=C(C(=O)OCC)N=3 | 178 |
| Cc1cc(Cl)ccc1NC(=S)N(C)C | 175 |
| CCCC(C)I (stereo not given) | -50 |
| CC12CCC3C4CCC(=O)C=C4CCC3C1CCC2O (stereo not given) | 122 |
